Measurements from paper PMC4704194, “Structural Basis of Metallo-β-Lactamase Inhibition by Captopril Stereoisomers” (Antimicrobial Agents and Chemotherapy, 2015).
Converted amounts (≈) assume the structure as drawn.

Columns and labels:
[1] = system: S. marcescens B13 (IMP-4); assay: MIC, broth microdilution; assay type: cell-based, Serratia marcescens; settings: captopril where added at 8 mg/liter
Text: (§1) The bacteria used were nonclonal international isolates whose mechanisms of carbapenem resistance have been defined genetically by sequencing. E. coli ATCC 25922 was used as a negative control. MBL genes were obtained by PCR using standard procedures and were inserted into a pK18 vector which was used to transform E. coli J53 ([34]). Transconjugants were obtained with MBL genes carried on native wild-type plasmids conjugated into J53 ([35]). Both transformants and transconjugants were confirmed by DNA sequencing and verified for MBL production by using MTS MBL strips (Liofilchem, Roseto, Italy). Additionally, 5 Escherichia coli (with NDM-1), 10 Klebsiella pneumoniae (5 with NDM-1, 3 with VIM-4, and 2 with IMP-4), 1 Serratia marcescens (with IMP-4), and 2 Pseudomonas aeruginosa (with VIM-2 and AIM-1) isolates and E. coli ATCC 25922 were used in the test panel. MICs were determined using the broth microdilution method according to CLSI guidelines. Strains were cultured and tested in cation-adjusted Mueller-Hinton agar and broth (Becton Dickinson).

E. coli 25922 = assay: MIC, broth microdilution; assay type: cell-based, Escherichia coli; settings: E. coli 25922 (negative control); captopril where added at 8 mg/liter
Text: as §1, with “E. coli ATCC 25922 was used as a negative control.” left out, “Additionally, 5 Escherichia coli (with NDM-1), 10 Klebsiella pneumoniae (5 with NDM-1, 3 with VIM-4, and 2 with IMP-4), 1 Serratia marcescens (with IMP-4), and 2 Pseudomonas aeruginosa (with VIM-2 and AIM-1) isolates and E. coli ATCC 25922 were used in the test panel.” left out

E. coli IR15 (NDM-1) = assay: MIC, broth microdilution; assay type: cell-based, Escherichia coli; settings: captopril where added at 8 mg/liter
Text: as §1

[2] = system: E. coli J53 + IMP-1 clone; assay: MIC, broth microdilution; assay type: cell-based, Escherichia coli; settings: captopril where added at 8 mg/liter
Text: as §1

E. coli IR10 (NDM-1) = assay: MIC, broth microdilution; assay type: cell-based, Escherichia coli; settings: captopril where added at 8 mg/liter
Text: as §1

E. coli IR24 (NDM-1) = assay: MIC, broth microdilution; assay type: cell-based, Escherichia coli; settings: captopril where added at 8 mg/liter
Text: as §1

[3] = system: E. coli J53 + VIM-2 transconjugant; assay: MIC, broth microdilution; assay type: cell-based, Escherichia coli; settings: captopril where added at 8 mg/liter
Text: as §1

[4] = system: E. coli J53 + NDM-1 clone; assay: MIC, broth microdilution; assay type: cell-based, Escherichia coli; settings: captopril where added at 8 mg/liter
Text: as §1

[5] = system: E. coli J53 + VIM-2 clone; assay: MIC, broth microdilution; assay type: cell-based, Escherichia coli; settings: captopril where added at 8 mg/liter
Text: as §1

[6] = system: K. pneumoniae N16 (NDM-1); assay: MIC, broth microdilution; assay type: cell-based, Klebsiella pneumoniae; settings: captopril where added at 8 mg/liter
Text: as §1

[7] = system: K. pneumoniae B12 (IMP-4); assay: MIC, broth microdilution; assay type: cell-based, Klebsiella pneumoniae; settings: captopril where added at 8 mg/liter
Text: as §1

[8] = system: K. pneumoniae A33 (VIM-4); assay: MIC, broth microdilution; assay type: cell-based, Klebsiella pneumoniae; settings: captopril where added at 8 mg/liter
Text: as §1

[9] = system: K. pneumoniae IR8 (NDM-1); assay: MIC, broth microdilution; assay type: cell-based, Klebsiella pneumoniae; settings: captopril where added at 8 mg/liter
Text: as §1

[10] = system: K. pneumoniae B19 (IMP-4); assay: MIC, broth microdilution; assay type: cell-based, Klebsiella pneumoniae; settings: captopril where added at 8 mg/liter
Text: as §1

[11] = system: K. pneumoniae IR19 (NDM-1); assay: MIC, broth microdilution; assay type: cell-based, Klebsiella pneumoniae; settings: captopril where added at 8 mg/liter
Text: as §1

[12] = system: K. pneumoniae A35 (VIM-4); assay: MIC, broth microdilution; assay type: cell-based, Klebsiella pneumoniae; settings: captopril where added at 8 mg/liter
Text: as §1

[13] = system: K. pneumoniae A34 (VIM-4); assay: MIC, broth microdilution; assay type: cell-based, Klebsiella pneumoniae; settings: captopril where added at 8 mg/liter
Text: as §1

[14] = system: K. pneumoniae HR8 (NDM-1); assay: MIC, broth microdilution; assay type: cell-based, Klebsiella pneumoniae; settings: captopril where added at 8 mg/liter
Text: as §1

VIM-4 = VIM-4 (Pseudomonas aeruginosa, UniProt Q8KRJ3); assay: MBL inhibition assay, VIM-4; assay type: biochemical
Experimental: (§2) Recombinant forms of NDM-1, VIM-2, VIM-4, SPM-1, IMP-1, and BcII MBLs were produced in Escherichia coli as described previously ([27], [28]).
(§3) Kinetic and inhibition assays with the bacterial MBLs, human angiotensin-converting enzyme 2 (hACE-2), and hydroxyacylglutathione hydrolase, human glyoxylase II (hHAGH), were performed as described previously ([7], [27]).

[15] = target: human angiotensin-converting enzyme 2 (hACE-2) (Homo sapiens, UniProt Q9BYF1); assay: Inhibition assay, hACE-2; assay type: biochemical; settings: at 100 μM, standard assay conditions
Sequence of human angiotensin-converting enzyme 2 (hACE-2) (Q9BYF1 18-805): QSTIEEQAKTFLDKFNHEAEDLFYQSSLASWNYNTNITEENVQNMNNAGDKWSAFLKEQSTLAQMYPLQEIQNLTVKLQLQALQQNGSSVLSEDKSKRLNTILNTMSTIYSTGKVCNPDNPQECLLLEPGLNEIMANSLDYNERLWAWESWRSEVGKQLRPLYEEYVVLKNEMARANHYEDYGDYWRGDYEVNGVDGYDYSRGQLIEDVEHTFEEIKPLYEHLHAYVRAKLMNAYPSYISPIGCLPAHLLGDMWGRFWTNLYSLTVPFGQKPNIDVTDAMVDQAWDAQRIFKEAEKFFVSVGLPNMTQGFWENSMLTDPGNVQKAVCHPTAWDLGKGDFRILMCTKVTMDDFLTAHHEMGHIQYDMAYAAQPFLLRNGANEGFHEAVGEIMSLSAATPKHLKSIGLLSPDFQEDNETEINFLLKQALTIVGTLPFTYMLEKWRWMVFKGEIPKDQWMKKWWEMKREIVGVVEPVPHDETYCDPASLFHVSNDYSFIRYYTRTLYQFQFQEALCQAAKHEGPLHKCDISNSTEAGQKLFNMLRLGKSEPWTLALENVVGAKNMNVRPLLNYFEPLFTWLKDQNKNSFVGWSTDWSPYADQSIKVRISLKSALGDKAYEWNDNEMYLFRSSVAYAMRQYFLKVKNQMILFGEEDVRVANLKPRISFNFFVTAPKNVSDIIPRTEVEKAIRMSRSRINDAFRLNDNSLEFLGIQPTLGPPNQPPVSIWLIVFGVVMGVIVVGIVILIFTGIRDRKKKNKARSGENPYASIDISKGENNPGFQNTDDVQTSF
Experimental: as §3

DCLRE1A = target: T1, DCLRE1A (Homo sapiens, UniProt Q6PJP8); assay: Nuclease assay, DCLRE1A; settings: at 100 μM, standard assay conditions
T1 sequence (Q6PJP8 608-1040 limits assumed): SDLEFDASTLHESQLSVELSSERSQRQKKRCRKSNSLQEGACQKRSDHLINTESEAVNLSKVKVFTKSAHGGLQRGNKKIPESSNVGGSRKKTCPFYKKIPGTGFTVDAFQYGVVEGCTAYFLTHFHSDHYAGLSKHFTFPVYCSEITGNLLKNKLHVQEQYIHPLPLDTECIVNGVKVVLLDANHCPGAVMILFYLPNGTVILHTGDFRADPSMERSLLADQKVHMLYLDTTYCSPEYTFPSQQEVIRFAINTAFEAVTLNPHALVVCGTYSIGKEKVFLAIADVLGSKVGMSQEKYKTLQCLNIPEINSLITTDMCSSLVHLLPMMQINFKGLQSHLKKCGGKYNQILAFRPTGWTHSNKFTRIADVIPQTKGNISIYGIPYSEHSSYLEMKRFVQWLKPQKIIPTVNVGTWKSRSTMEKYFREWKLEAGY
Experimental: (§4) Nuclease assays with DCLRE1A and DCLRE1B (DNA cross-link repair enzymes 1A and 1B) ([33]) were performed according to a previously described method ([33]), employing a 21-nucleotide DNA oligonucleotide with a fluorescein label at its 3′ end. In brief, exonuclease activity was measured using ΔN-DCLRE1A (3.5 ng; 8 nM) or ΔC-DCLRE1B (1.5 ng; 4 nM) mixed with 1 pmol (1 μM) of 3′-fluorescein-labeled DNA substrate in 10 μl of 20 mM HEPES, pH 7.9, 50 mM KCl, 10 mM MgCl2, 0.5 mM dithiothreitol (DTT), 0.05% Triton-X, 0.1 mg/ml bovine serum albumin (BSA), and 5% glycerol.
(§5) [SNM1A] = [SNM1B] = 0.8 nM; [21nt fluor-ssDNA] = 1 µM, assay time = 20 mins

[16] = target: hydroxyacylglutathione hydrolase, human glyoxylase II (hHAGH) (Homo sapiens, UniProt Q16775); assay: Inhibition assay, hHAGH; assay type: biochemical; settings: at 100 μM, standard assay conditions
Experimental: as §3

DCLRE1B = target: T2, DCLRE1B (Homo sapiens, UniProt Q9H816); assay: Nuclease assay, DCLRE1B; settings: at 100 μM, standard assay conditions
T2 sequence (Q9H816 1-335 limits assumed): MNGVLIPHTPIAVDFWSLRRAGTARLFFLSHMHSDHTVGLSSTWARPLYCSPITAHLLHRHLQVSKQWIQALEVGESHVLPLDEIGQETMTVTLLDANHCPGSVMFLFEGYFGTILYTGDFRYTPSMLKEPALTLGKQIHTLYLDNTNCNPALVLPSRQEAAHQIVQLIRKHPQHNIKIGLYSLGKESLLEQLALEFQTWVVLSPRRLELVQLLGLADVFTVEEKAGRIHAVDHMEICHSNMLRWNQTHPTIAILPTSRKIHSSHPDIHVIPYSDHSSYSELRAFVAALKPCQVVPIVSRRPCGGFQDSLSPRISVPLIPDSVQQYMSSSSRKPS
Experimental: as §4, §5

VIM-2 = target: T3, VIM-2 (Escherichia coli, UniProt Q5U7L7); assay: biochemical; settings: means ± standard deviations, three or more experiments
T3 construct: made in house; host or cells: Escherichia coli
Experimental: as §2, §3

BcII = BcII (Bacillus cereus, UniProt P04190); assay: MBL inhibition assay, BcII
Sequence of BcII (P04190 31-257): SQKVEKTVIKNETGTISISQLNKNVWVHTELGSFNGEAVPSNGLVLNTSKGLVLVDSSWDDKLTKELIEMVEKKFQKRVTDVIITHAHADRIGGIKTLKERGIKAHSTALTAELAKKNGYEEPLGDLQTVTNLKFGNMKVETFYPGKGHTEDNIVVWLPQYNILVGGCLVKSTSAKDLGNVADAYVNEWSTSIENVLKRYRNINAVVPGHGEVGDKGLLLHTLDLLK
Experimental: as §2, §3

NDM-1 = target: T4, NDM-1 (Klebsiella pneumoniae, UniProt C7C422); assay: biochemical
T4 construct: made in house; host or cells: Escherichia coli
T4 sequence (C7C422 29-270 limits assumed): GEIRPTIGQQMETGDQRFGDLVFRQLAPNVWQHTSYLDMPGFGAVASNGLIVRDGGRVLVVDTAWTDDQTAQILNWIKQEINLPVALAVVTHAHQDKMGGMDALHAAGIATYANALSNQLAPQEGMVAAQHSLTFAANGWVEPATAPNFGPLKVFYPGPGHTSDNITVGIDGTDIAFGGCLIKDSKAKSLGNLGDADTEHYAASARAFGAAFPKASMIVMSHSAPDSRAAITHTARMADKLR
Experimental: as §2, §3

IMP-1 = IMP-1 (Serratia marcescens, UniProt P52699); assay: MBL inhibition assay, IMP-1
Sequence of IMP-1 (P52699 19-246 limits assumed): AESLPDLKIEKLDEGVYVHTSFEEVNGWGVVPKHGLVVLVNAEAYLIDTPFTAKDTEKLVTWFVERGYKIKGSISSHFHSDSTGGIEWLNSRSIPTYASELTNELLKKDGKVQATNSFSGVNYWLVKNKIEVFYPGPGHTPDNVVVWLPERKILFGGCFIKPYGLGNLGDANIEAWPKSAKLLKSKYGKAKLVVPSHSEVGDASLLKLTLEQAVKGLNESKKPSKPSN
Experimental: as §2, §3

SPM-1 = SPM-1 (Pseudomonas aeruginosa, UniProt Q8G9Q0); assay: MBL inhibition assay, SPM-1
Sequence of SPM-1 (Q8G9Q0 entry or part of it): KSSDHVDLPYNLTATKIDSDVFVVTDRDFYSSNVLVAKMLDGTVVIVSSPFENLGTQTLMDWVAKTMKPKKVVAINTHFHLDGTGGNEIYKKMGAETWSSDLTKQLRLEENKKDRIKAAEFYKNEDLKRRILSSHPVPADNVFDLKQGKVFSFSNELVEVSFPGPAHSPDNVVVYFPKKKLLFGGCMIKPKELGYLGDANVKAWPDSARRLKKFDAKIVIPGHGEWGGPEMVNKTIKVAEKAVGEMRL
Experimental: as §2, §3

FEZ-1 = target: FEZ-1; parameters: method as in PMID 12507470; settings: B3 MBL ref 23; cited from earlier work
CphA = settings: B2 MBL ref 18; cited from earlier work
[17] = system: E. coli J53 + NDM-1 transconjugant; assay: MIC, broth microdilution; assay type: cell-based, Escherichia coli; settings: captopril where added at 8 mg/liter
Text: as §1, with “E. coli ATCC 25922 was used as a negative control.” left out, “Additionally, 5 Escherichia coli (with NDM-1), 10 Klebsiella pneumoniae (5 with NDM-1, 3 with VIM-4, and 2 with IMP-4), 1 Serratia marcescens (with IMP-4), and 2 Pseudomonas aeruginosa (with VIM-2 and AIM-1) isolates and E. coli ATCC 25922 were used in the test panel.” left out

| SMILES | MIC [2] | MIC [3] | MIC [4] | MIC [5] | IC50 (VIM-4) | inhibition of hACE-2 [15] | inhibition of DCLRE1A (DCLRE1A) | inhibition of hHAGH [16] | inhibition of DCLRE1B (DCLRE1B) | also measured |
| --- | --- | --- | --- | --- | --- | --- | --- | --- | --- | --- |
| C[C@@H](O)[C@H]1C(=O)N2C(C(=O)O)=C(S[C@@H]3CN[C@H](C(=O)N(C)C)C3)[C@H](C)[C@H]12 [MEM, meropenem] | 1 µg/mL (≈ 2.61 µM) | 2 µg/mL (≈ 5.22 µM) | 64 µg/mL (≈ 167 µM) | 8 µg/mL (≈ 20.9 µM) | – | – | – | – | – | MIC [1]: 4 µg/mL (≈ 10.4 µM); MIC (E. coli 25922): < 0.125 µg/mL; MIC (E. coli IR15 (NDM-1)): 8 µg/mL (≈ 20.9 µM); MIC (E. coli IR10 (NDM-1)): 64 µg/mL (≈ 167 µM); MIC (E. coli IR24 (NDM-1)): 512 µg/mL (≈ 1340 µM); MIC [6]: 32 µg/mL (≈ 83.4 µM); MIC [7]: 8 µg/mL (≈ 20.9 µM); MIC [8]: 8 µg/mL (≈ 20.9 µM); MIC [9]: 16 µg/mL (≈ 41.7 µM); MIC [10]: 32 µg/mL (≈ 83.4 µM); MIC [11]: 8 µg/mL (≈ 20.9 µM); MIC [12]: 16 µg/mL (≈ 41.7 µM); MIC [13]: 8 µg/mL (≈ 20.9 µM); MIC [14]: 64 µg/mL (≈ 167 µM) |
| C[C@H](CS)C(=O)N1CCC[C@H]1C(=O)O [L-Captopril, (2S)-1-[(2S)-2-Methyl-3-sulfanylpropanoyl] pyrrolidine-2-carboxylic acid] | – | – | – | – | 3.9 ± 0.5 µM | no inhibition | no inhibition | no inhibition | no inhibition | – |
| O=C(O)C1CCCN1C(=O)c1ccccc1S [D-MBP, 1-(2-mercaptobenzoyl)pyrrolidine-2-carboxylic acid] | – | – | – | – | – | no inhibition | no inhibition | no inhibition | no inhibition | IC50 (VIM-2): > 500 µM; IC50 (BcII): > 500 µM; IC50 (NDM-1): > 500 µM; IC50 (IMP-1): > 500 µM; IC50 (SPM-1): > 500 µM |
| C[C@@H](CS)C(=O)N1CCC[C@H]1C(=O)O [D-Captopril, (2S)-1-[(2R)-2-methyl-3-sulfanylpropanoyl] pyrrolidine-2-carboxylic acid] | – | – | – | – | 1.7 ± 0.4 µM | no inhibition | no inhibition | no inhibition | no inhibition | Ki (FEZ-1): 400 µM; Ki (CphA): 72 µM |
| CC(C)(O/N=C(\C(=O)N[C@@H]1C(=O)N2C(C(=O)[O-])=C(C[n+]3ccccc3)CS[C@H]12)c1csc(N)n1)C(=O)O [CFZ, ceftazidime] | 128 µg/mL (≈ 234 µM) | 32 µg/mL (≈ 58.5 µM) | 512 µg/mL (≈ 937 µM) | 32 µg/mL (≈ 58.5 µM) | – | – | – | – | – | MIC [17]: 512 µg/mL (≈ 937 µM) |
